Laboratory results taken from patent publication US11813306B2, “Cyclic tetramer compounds as proprotein convertase subtilisin/kexin type 9 (PCSK9) inhibitors for the treatment of metabolic disorders” (NOVARTIS AG, priority 2018, dated 2023).
Counter-ions that a name gives are not always drawn. Like-named read-outs stand apart in the source and are kept apart here.

What was measured:
[1] = amide bond, DCM
[2] = target: human PCSK9 (Homo sapiens, UniProt Q8NBP7); assay: PCSK9 ligand binding assay (TR-FRET): interference with binding of human PCSK9 to human LDLR; conditions: for IC50: Human PCSK9 Alexa Fluor 647 / Human LDLR extracellular domain-Europium Kryptate; for Max % inhibition: efficacy (Amax), 100% = 1 uM unlabeled human PCSK9, 0% = DMSO
Sequence of human PCSK9 (Q8NBP7 153-692): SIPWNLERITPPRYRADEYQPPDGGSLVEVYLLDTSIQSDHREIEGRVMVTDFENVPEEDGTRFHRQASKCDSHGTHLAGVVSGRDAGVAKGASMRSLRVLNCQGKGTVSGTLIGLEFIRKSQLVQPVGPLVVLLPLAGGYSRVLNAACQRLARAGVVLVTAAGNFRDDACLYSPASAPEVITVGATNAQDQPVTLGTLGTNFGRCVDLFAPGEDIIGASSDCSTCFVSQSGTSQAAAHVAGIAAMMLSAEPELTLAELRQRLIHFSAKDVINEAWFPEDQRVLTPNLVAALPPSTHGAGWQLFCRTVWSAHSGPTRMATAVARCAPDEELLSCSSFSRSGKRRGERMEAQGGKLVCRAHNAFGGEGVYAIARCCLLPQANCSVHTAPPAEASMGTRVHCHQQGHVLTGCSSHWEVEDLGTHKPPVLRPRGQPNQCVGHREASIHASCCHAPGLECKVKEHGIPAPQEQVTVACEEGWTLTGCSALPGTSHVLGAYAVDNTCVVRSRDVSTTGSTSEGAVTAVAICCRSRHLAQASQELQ
Sequence of human PCSK9 (Q8NBP7 31-152 partner limits assumed): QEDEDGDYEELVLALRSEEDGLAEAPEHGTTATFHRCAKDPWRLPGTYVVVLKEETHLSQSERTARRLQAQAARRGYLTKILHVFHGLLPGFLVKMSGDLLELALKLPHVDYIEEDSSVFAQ
Summary of the method: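 Read-out was TR-FRET ratio (665 nm over 615 nm, 330 nm excitation) between Alexa Fluor 647-human PCSK9 (16 nM added) and Europium Kryptate-human LDLR ectodomain (4 nM added). Compound and PCSK9 were mixed 30 min before LDLR, then incubated 2 h. Inhibition was normalised to DMSO and unlabelled-PCSK9 controls, giving IC50 and Amax.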

| SMILES | ring closure, yield of all isomers ([1]; from COC[C@H](NC(=O)[C@H](C)NCc1c(F)cc(Cl)cc1Oc1ccc(-c2cnc(CN(C(=O)OC(C)(C)C)C(C)(C)C)n2C)cc1)C(=O)N(C)[C@@]1(Cc2ccc(Cl)cc2)CCCN(C(=O)[C@@H](CC(=O)O)C2CC(F)(F)C2)C1, HATU, 1.82 mM, 42.0 °C) [%] | ring closure, yield of all isomers ([1]; from C[C@H](NCc1c(F)cc(Cl)cc1Oc1ccc(-c2cnc(CN(C)C)n2C)cc1)C(=O)N[C@@H](CO)C(=O)N(C)[C@@]1(Cc2ccc(Cl)cc2)CCCN(C(=O)[C@@H](CC(=O)O)Cc2cccc[n+]2[O-])C1, HATU/HOAt/2,6-lutidine, 1.08 mM, 48.0 °C, 4.0 h) [%] | ring closure, yield of all isomers ([1]; from C[C@H](NCc1ccc(Cl)cc1Oc1ccc(-c2cnc(CN3CCCC3)n2C)cc1)C(=O)N1[C@H](C(=O)N[C@@]2(Cc3ccc(Cl)cc3)CCCN(C(=O)[C@@H](CC(=O)O)Cc3cccc[n+]3[O-])C2)COC1(C)C, HATU, 1.72 mM, 48.0 °C, 19.0 h, 2 steps) [%] | IC50 [2] [nM] | Max % inhibition [2] [%] |
| --- | --- | --- | --- | --- | --- |
| COC[C@@H]1NC(=O)[C@H](C)N(Cc2c(F)cc(Cl)cc2Oc2ccc(-c3cnc(CN(C(=O)OC(C)(C)C)C(C)(C)C)n3C)cc2)C(=O)C[C@@H](C2CC(F)(F)C2)C(=O)N2CCC[C@@](Cc3ccc(Cl)cc3)(C2)N(C)C1=O | 86 | – | – | – | – |
| C[C@H]1C(=O)N[C@@H](CO)C(=O)N(C)[C@@]2(Cc3ccc(Cl)cc3)CCCN(C2)C(=O)[C@H](Cc2cccc[n+]2[O-])CC(=O)N1Cc1c(F)cc(Cl)cc1Oc1ccc(-c2cnc(CN(C)C)n2C)cc1 | – | 98.8 | – | – | – |
| C[C@H]1C(=O)N[C@@H](CO)C(=O)N[C@@]2(Cc3ccc(Cl)cc3)CCCN(C2)C(=O)[C@H](Cc2cccc[n+]2[O-])CC(=O)N1Cc1ccc(Cl)cc1Oc1ccc(-c2cnc(CN3CCCC3)n2C)cc1 | – | – | 33.3 | – | – |
| COC[C@@H]1NC(=O)[C@H](C)N(Cc2c(F)cc(Cl)cc2Oc2ccc(-c3cnc(CN)n3C)cc2)C(=O)C[C@@H](C2CC(F)(F)C2)C(=O)N2CCC[C@@](Cc3ccc(Cl)cc3)(C2)N(C)C1=O [Compound 166, (3S, 7S, 10S, 13R)-6-(2-(4-(2-(aminomethyl)-1-methyl-1H-imidazol-5-yl)phenoxy)-4-chloro-6-fluorobenzyl)-13-(4-chlorobenzyl)-3-(3,3-difluorocyclobutyl)-10-(methoxymethyl)-7,12-dimethyl-1,6,9,12-tetraazabicyclo[11.3.1]heptadecane-2,5,8,11-tetraone] | – | – | – | 0.74 | 98.1 |
| CNCc1ncc(-c2ccc(Oc3cc(Cl)cc(F)c3CN3C(=O)C[C@@H](Cc4cccc(C)n4)C(=O)N4CCC[C@@](Cc5ccc(Cl)cc5)(C4)N(C)C(=O)[C@H](COC)NC(=O)[C@@H]3C)cc2)n1C [Compound 167, (3R,7S,10S,13R)-6-(4-chloro-2-fluoro-6-(4-(1-methyl-2-((methylamino)methyl)-1H-imidazol-5-yl)phenoxy)benzyl)-13-(4-chlorobenzyl)-10-(methoxymethyl)-7,12-dimethyl-3-((6-methylpyridin-2-yl)methyl)-1,6,9,12-tetraazabicyclo[11.3.1]heptadecane-2,5,8,11-tetraone] | – | – | – | 0.9 | 108.6 |
| COC[C@@H]1NC(=O)[C@H](C)N(Cc2c(F)cc(Cl)cc2Oc2ccc(-c3cnc(CN(C)C)n3C)cc2)C(=O)C[C@@H](Cc2cccc(C)[n+]2[O-])C(=O)N2CCC[C@@](Cc3ccc(Cl)cc3)(C2)N(C)C1=O [Compound 168, 2-(((3R, 7S, 10S, 13R)-6-(4-chloro-2-(4-(2-((dimethylamino)methyl)-1-methyl-1H-imidazol-5-yl)phenoxy)-6-fluorobenzyl)-13-(4-chlorobenzyl)-10-(methoxymethyl)-7,12-dimethyl-2,5,8,11-tetraoxo-1,6,9,12-tetraazabicyclo[11.3.1]heptadecan-3-yl)methyl)-6-methylpyridine 1-oxide] | – | – | – | 0.81 | 114.9 |
| COC[C@@H]1NC(=O)[C@H](C)N(Cc2c(F)cc(Cl)cc2Oc2ccc(-c3cnc(CN(C)C(C)(C)C)n3C)cc2)C(=O)C[C@@H](C2CC(F)(F)C2)C(=O)N2CCC[C@@](Cc3ccc(Cl)cc3)(C2)N(C)C1=O [Compound 169, (3S, 7S, 10S, 13R)-6-(2-(4-(2-((tert-butyl(methyl)amino)methyl)-1-methyl-1H-imidazol-5-yl)phenoxy)-4-chloro-6-fluorobenzyl)-13-(4-chlorobenzyl)-3-(3,3-difluorocyclobutyl)-10-(methoxymethyl)-7,12-dimethyl-1,6,9,12-tetraazabicyclo[11.3.1]heptadecane-2,5,8,11-tetraone] | – | – | – | 0.85 | 113.1 |
| Cc1cccc(C[C@@H]2CC(=O)N(Cc3c(F)cc(Cl)cc3Oc3ccc(-c4cnc(CN(C)C)n4C)cc3)[C@@H](C)C(=O)N[C@@H](CO)C(=O)N(C)[C@@]3(Cc4ccc(Cl)cc4)CCCN(C3)C2=O)n1 [Compound 170, (3R,7S,10S,13R)-6-(4-chloro-2-(4-(2-((dimethylamino)methyl)-1-methyl-1H-imidazol-5-yl)phenoxy)-6-fluorobenzyl)-13-(4-chlorobenzyl)-10-(hydroxymethyl)-7,12-dimethyl-3-((6-methylpyridin-2-yl)methyl)-1,6,9,12-tetraazabicyclo[11.3.1]heptadecane-2,5,8,11-tetraone] | – | – | – | 0.73 | 115.0 |
| COC[C@@H]1NC(=O)[C@H](C)N(Cc2c(F)cc(Cl)cc2Oc2ccc(-c3cnc(CN(C)C)n3C)nc2)C(=O)C[C@@H](C2CC(F)(F)C2)C(=O)N2CCC[C@@](Cc3ccc(Cl)cc3)(C2)N(C)C1=O [Compound 171] | – | – | – | 1.03 | 107.8 |
| CNCc1ncc(-c2ccc(Oc3cc(Cl)cc(F)c3CN3C(=O)C[C@@H](CC(F)(F)F)C(=O)N4CCC[C@@](Cc5ccc(Cl)cc5)(C4)N(C)C(=O)[C@H](COC)NC(=O)[C@@H]3C)cc2)n1C [Compound 172, (3S, 7S, 10S, 13R)-6-(4-chloro-2-fluoro-6-(4-(1-methyl-2-((methylamino)methyl)-1H-imidazol-5-yl)phenoxy)benzyl)-13-(4-chlorobenzyl)-10-(methoxymethyl)-7,12-dimethyl-3-(2,2,2-trifluoroethyl)-1,6,9,12-tetraazabicyclo[11.3.1]heptadecane-2,5,8,11-tetraone] | – | – | – | 0.57 | 104.8 |
| COC[C@@H]1NC(=O)[C@H](C)N(Cc2c(F)cc(Cl)cc2Oc2ccc(-c3cnc(CN(C)C)n3C)nc2)C(=O)C[C@@H](CC(F)(F)F)C(=O)N2CCC[C@@](Cc3ccc(Cl)cc3)(C2)N(C)C1=O [Compound 173] | – | – | – | 1.37 | 107.7 |
| COC[C@@H]1NC(=O)[C@H](C)N(Cc2c(F)cc(Cl)cc2Oc2ccc(-c3cnc(CN(C)C)n3C)cc2)C(=O)C[C@@H](C2CCOCC2)C(=O)N2CCC[C@@](Cc3ccc(Cl)cc3)(C2)N(C)C1=O [Compound 174, (3S, 7S, 10S, 13R)-6-(4-chloro-2-(4-(2-((dimethylamino)methyl)-1-methyl-1H-imidazol-5-yl)phenoxy)-6-fluorobenzyl)-13-(4-chlorobenzyl)-10-(methoxymethyl)-7,12-dimethyl-3-(tetrahydro-2H-pyran-4-yl)-1,6,9,12-tetraazabicyclo[11.3.1]heptadecane-2,5,8,11-tetraone] | – | – | – | 2.2 | 110.7 |
| C[C@H]1C(=O)N[C@@H](COC(F)F)C(=O)N(C)[C@@]2(Cc3ccc(Cl)cc3)CCCN(C2)C(=O)[C@H](CC(F)(F)F)CC(=O)N1Cc1c(F)cc(Cl)cc1Oc1ccc(-c2cnc(CN(C)C)n2C)cc1 [Compound 175, (3S, 7S, 10S, 13R)-6-(4-chloro-2-(4-(2-((dimethylamino)methyl)-1-methyl-1H-imidazol-5-yl)phenoxy)-6-fluorobenzyl)-13-(4-chlorobenzyl)-10-((difluoromethoxy)methyl)-7,12-dimethyl-3-(2,2,2-trifluoroethyl)-1,6,9,12-tetraazabicyclo[11.3.1]heptadecane-2,5,8,11-tetraone] | – | – | – | 2.56 | 114.7 |
| COC[C@@H]1NC(=O)[C@@H](C)N(Cc2c(F)cc(Cl)cc2Oc2ccc(-c3cnc(CN(C)C)n3C)nc2)C(=O)C[C@@H](CC(F)(F)F)C(=O)N2CCC[C@@](Cc3ccc(Cl)cc3)(C2)N(C)C1=O [Compound 176, (3S, 7R, 10S, 13R)-6-(4-chloro-2-((6-(2-((dimethylamino)methyl)-1-methyl-1H-imidazol-5-yl)pyridin-3-yl)oxy)-6-fluorobenzyl)-13-(4-chlorobenzyl)-10-(methoxymethyl)-7,12-dimethyl-3-(2,2,2-trifluoroethyl)-1,6,9,12-tetraazabicyclo[11.3.1]heptadecane-2,5,8,11-tetraone] | – | – | – | 76.3 | 86.3 |
| CNCc1ncc(-c2ccc(Oc3cc(Cl)cc(F)c3CN3C(=O)C[C@@H](CC(F)(F)F)C(=O)N4CCC[C@@](Cc5ccc(Cl)cc5)(C4)N(C)C(=O)[C@H](CO)NC(=O)[C@@H]3C)cc2)n1C [Compound 177, (3S,7S,10S,13R)-6-(4-chloro-2-fluoro-6-(4-(1-methyl-2-((methylamino)methyl)-1H-imidazol-5-yl)phenoxy)benzyl)-13-(4-chlorobenzyl)-10-(hydroxymethyl)-7,12-dimethyl-3-(2,2,2-trifluoroethyl)-1,6,9,12-tetraazabicyclo[11.3.1]heptadecane-2,5,8,11-tetraone trifluoroacetate] | – | – | – | 52.7 | 108.8 |
| CN(C)Cc1ncc(-c2ccc(Oc3cc(Cl)ccc3CN3C(=O)C[C@@H](Cc4ccccc4)C(=O)N4CCC[C@@](Cc5ccc(Cl)cc5)(C4)NC(=O)[C@H](CO)NC(=O)[C@@H]3CCN)cc2)n1C [Compound 178, (3R,7S,10S,13R)-7-(2-aminoethyl)-3-benzyl-6-(4-chloro-2-(4-(2-((dimethylamino)methyl)-1-methyl-1H-imidazol-5-yl)phenoxy)benzyl)-13-(4-chlorobenzyl)-10-(hydroxymethyl)-1,6,9,12-tetraazabicyclo[11.3.1]heptadecane-2,5,8,11-tetraone] | – | – | – | 2.66 | 104.3 |
